Reference: the OligoGym collection
Where “and” joins values, the source holds several entries; their conditions need not be identical. Identical values can stand only once. After the bases stand the sugars from the 5' end (letter, count) and the backbone: PS all phosphorothioate, else s phosphorothioate and o phosphodiester by linkage. Methylation of C is not given here. e = 2'-O-(2-methoxyethyl) (MOE); k = constrained ethyl (cEt); d = 2'-deoxy (DNA)

Assays:
[1] = target: DGAT2; conditions: ASO
[2] = target: APOL1; conditions: ASO

Sequence: ACAATTCCTGGATAACAAGG (sugars e5 d10 e5, PS)
- target mRNA inhibition ([1]; HepG2, 0.12 µM): 41%

Sequence: ACCCATCGGCCCCAGGAGCC (sugars e5 d10 e5, PS)
- target mRNA inhibition ([1]; HepG2, 0.12 µM): 59%

Sequence: AGTTTCGGACCCACTGTGAC (sugars e5 d10 e5, PS)
- target mRNA inhibition ([1]; HepG2, 0.12 µM): 63%

Sequence: GGGAAGGTAAACTGAGGCCA (sugars e5 d10 e5, PS)
- target mRNA inhibition ([1]; HepG2, 0.12 µM): 32%

Sequence: GCCTCGGTGTCCTCTCCTGT (sugars e5 d10 e5, PS)
- target mRNA inhibition ([1]; HepG2, 2.5 µM): 59%
- target mRNA inhibition ([1]; HepG2, 10 µM): 83%

Sequence: GATAGCATTGCCACTCCCAT (sugars e2 d13 e5, PS)
- target mRNA inhibition ([1]; HepG2, 0.12 µM): 62%

Sequence: TGCCAATGCCTAGGTCA (sugars e3 d10 e4, PS)
- target mRNA inhibition ([1]; HepG2, 2.5 µM): 82% and 74%
- target mRNA inhibition ([1]; HepG2, 10 µM): 70% and 89%

Sequence: GCCCAGTTTCGGACCCACTG (sugars e2 d13 e5, PS)
- target mRNA inhibition ([1]; HepG2, 0.12 µM): 82%

Sequence: AGCAGGTTGTGTGTCTTCAC (sugars e5 d10 e5, PS)
- target mRNA inhibition ([1]; HepG2, 0.12 µM): 55% and 77%
- target mRNA inhibition ([1]; HepG2, 2.5 µM): 0%

Sequence: CCCAGTACTTTCTTCTCATG (sugars e5 d10 e5, PS)
- target mRNA inhibition ([1]; HepG2, 2.5 µM): 72%
- target mRNA inhibition ([1]; HepG2, 10 µM): 96%

Sequence: GATGGGTACTTCTGTT (sugars k4 d9 k3, PS)
- target mRNA inhibition ([2]; A431, 0.0625 µM): 63%
- target mRNA inhibition ([2]; A431, 0.25 µM): 82%
- target mRNA inhibition ([2]; A431, 1 µM): 90%

Sequence: AAGCTTTAAACTCAGG (sugars kkkddddkekeddddd, PS)
- target mRNA inhibition ([2]; A431, 2 µM): 84%

Sequence: GTTATGAAATTATTGG (sugars k3 d4 k3 e1 d5, PS)
- target mRNA inhibition ([2]; A431, 0.0156 µM): 21%
- target mRNA inhibition ([2]; A431, 0.0625 µM): 56%
- target mRNA inhibition ([2]; A431, 0.25 µM): 85%
- target mRNA inhibition ([2]; A431, 1 µM): 93%
- target mRNA inhibition ([2]; A431, 2 µM): 96%

Sequence: TTTTGTAAGTGCAACC (sugars kkkddddkekeddddd, PS)
- target mRNA inhibition ([2]; A431, 0.0156 µM): 21%
- target mRNA inhibition ([2]; A431, 0.0625 µM): 67%
- target mRNA inhibition ([2]; A431, 0.25 µM): 89%
- target mRNA inhibition ([2]; A431, 1 µM): 97%
- target mRNA inhibition ([2]; A431, 2 µM): 98%

Sequence: CCCCTGCCAGGCATAT (sugars k4 d9 k3, PS)
- target mRNA inhibition ([2]; A431, 0.0625 µM): 22%
- target mRNA inhibition ([2]; A431, 0.25 µM): 42%
- target mRNA inhibition ([2]; A431, 1 µM): 44%

Sequence: ATTCTCATGGTACAGG (sugars k2 d4 e3 k2 d5, PS)
- target mRNA inhibition ([2]; A431, 0.0156 µM): 13%
- target mRNA inhibition ([2]; A431, 0.0625 µM): 34%
- target mRNA inhibition ([2]; A431, 0.25 µM): 72%
- target mRNA inhibition ([2]; A431, 1 µM): 90%
- target mRNA inhibition ([2]; A431, 2 µM): 92%

Sequence: GTTCTAACTCTTGGGC (sugars kkkddddkekekdddd, PS)
- target mRNA inhibition ([2]; A431, 2 µM): 37%

Sequence: GTATTGTTTTTGTGGG (sugars kdddddkekekddddd, PS)
- target mRNA inhibition ([2]; A431, 2 µM): 77%

Sequence: AGCTTTAAACTCAGGT (sugars kekddddeekkddddd, PS)
- target mRNA inhibition ([2]; A431, 2 µM): 82%

Sequence: AAGTATTGCCAGCTAA (sugars kkkddddkekekdddd, PS)
- target mRNA inhibition ([2]; A431, 2 µM): 47%

Sequence: CATTCAGAATTTCCAC (sugars kkkddddkdkdkdddd, PS)
- target mRNA inhibition ([2]; A431, 2 µM): 88%

Sequence: TATGGAATTGCAGATA (sugars k4 d9 k3, PS)
- target mRNA inhibition ([2]; A431, 0.0625 µM): 8%
- target mRNA inhibition ([2]; A431, 0.25 µM): 46%
- target mRNA inhibition ([2]; A431, 1 µM): 74%

Sequence: GAATTATGGAATTGCA (sugars kkdddddkekeddddd, PS)
- target mRNA inhibition ([2]; A431, 0.0156 µM): 17%
- target mRNA inhibition ([2]; A431, 0.0625 µM): 38%
- target mRNA inhibition ([2]; A431, 0.25 µM): 75%
- target mRNA inhibition ([2]; A431, 1 µM): 86%
- target mRNA inhibition ([2]; A431, 2 µM): 92%

Sequence: ATGCTAATTTTCTGAC (sugars kkddddkekekddddd, PS)
- target mRNA inhibition ([2]; A431, 0.0156 µM): 25%
- target mRNA inhibition ([2]; A431, 0.0625 µM): 59%
- target mRNA inhibition ([2]; A431, 0.25 µM): 84%
- target mRNA inhibition ([2]; A431, 1 µM): 93%
- target mRNA inhibition ([2]; A431, 2 µM): 97%

Sequence: AACATGAAGTGAGCCT (sugars k4 d9 k3, PS)
- target mRNA inhibition ([2]; A431, 0.0625 µM): 20%
- target mRNA inhibition ([2]; A431, 0.25 µM): 49%
- target mRNA inhibition ([2]; A431, 1 µM): 73%

Sequence: ATCAGATGGGTACTTC (sugars k4 d9 k3, PS)
- target mRNA inhibition ([2]; A431, 0.0625 µM): 53%
- target mRNA inhibition ([2]; A431, 0.25 µM): 78%
- target mRNA inhibition ([2]; A431, 1 µM): 89%

Sequence: GGACATTGAACCTGGG (sugars k4 d9 k3, PS)
- target mRNA inhibition ([2]; A431, 0.0625 µM): 50%
- target mRNA inhibition ([2]; A431, 0.25 µM): 78%
- target mRNA inhibition ([2]; A431, 1 µM): 86%

Sequence: CACTTTATACCAGTGT (sugars kkddddekekeddddd, PS)
- target mRNA inhibition ([2]; A431, 2 µM): 0%

Sequence: ACGCAATGCTGACTTG (sugars kddddkekekeddddd, PS)
- target mRNA inhibition ([2]; A431, 2 µM): 72%

Sequence: TCTATTAGAGGGCTAG (sugars k2 d4 e3 k2 d5, PS)
- target mRNA inhibition ([2]; A431, 2 µM): 67%

Sequence: CACATCATTGGGTTAT (sugars k2 d4 e3 k2 d5, PS)
- target mRNA inhibition ([2]; A431, 2 µM): 86%

Sequence: ACACATCATTGGGTTA (sugars kkddddkekekddddd, PS)
- target mRNA inhibition ([2]; A431, 2 µM): 50%

Sequence: TTCTATTAGAGGGCTA (sugars kkddddekekeddddd, PS)
- target mRNA inhibition ([2]; A431, 2 µM): 85%

Sequence: GTTCAAAAGCAGCATT (sugars k3 d5 k3 d5, PS)
- target mRNA inhibition ([2]; A431, 2 µM): 90%

Sequence: CGATTGTCTTGTTTTT (sugars k4 d9 k3, PS)
- target mRNA inhibition ([2]; A431, 0.0625 µM): 70% and 79%
- target mRNA inhibition ([2]; A431, 0.25 µM): 90% and 88%
- target mRNA inhibition ([2]; A431, 1 µM): 97% and 94%

Sequence: AATTATGGAATTGCAG (sugars kkddddkekekkdddd, PS)
- target mRNA inhibition ([2]; A431, 2 µM): 35%

Sequence: TTTATACCAGTGTCTT (sugars kkddddkekekkdddd, PS)
- target mRNA inhibition ([2]; A431, 2 µM): 51%
